Species: Rattus norvegicus
Assay: Open TG-GATES - Regimen: Daily Repeat
Format: toxicity, organism-based, Sprague-Dawley
Set-up: regimen Daily Repeat, gender Male, age 6 weeks
Conditions: in vivo, po, 0 mg/kg, route gavage, dose level Control; for APTT / Bas / Eos / Fbg / Hb / Ht / Lym / MCH / MCHC / MCV / Mono / Neu / PT / Plat / RBC / Ret / WBC: tissue Blood; for KIDNEY_L / KIDNEY_R / KIDNEY_TOTAL: tissue Kidney; for LIVER: tissue Liver; for A/G / ALP / ALT / AST / BUN / CRE / Ca / Cl / DBIL / GLC / IP / K / LDH / Na / PL / RALB / TBIL / TC / TG / TP / gamma-GTP: tissue Plasma

SMILES: CC[C@H]1[C@@H]2C[C@H]3[C@@H]4N(C)c5ccccc5[C@]45C[C@@H]([C@@H]2[C@H]5O)N3[C@@H]1O [AJMALINE]
- TERMINAL_BW (72 h, time 3 day): 211 g
- APTT (72 h, time 3 day): 16.4 s
- Bas (72 h, time 3 day): 0%
- Eos (72 h, time 3 day): 1%
- Fbg (72 h, time 3 day): 218.4 mg/dL
- Hb (72 h, time 3 day): 13 g/dL
- Ht (72 h, time 3 day): 40.1%
- Lym (72 h, time 3 day): 75.8%
- MCH (72 h, time 3 day): 21.1 pg
- MCHC (72 h, time 3 day): 32.4%
- MCV (72 h, time 3 day): 65 fL
- Mono (72 h, time 3 day): 10.4%
- Neu (72 h, time 3 day): 13%
- PT (72 h, time 3 day): 11.6 s
- Plat (72 h, time 3 day): 115.1 x10_4/uL
- RBC (72 h, time 3 day): 617.4 x10_4/ul
- Ret (72 h, time 3 day): 8%
- WBC (72 h, time 3 day): 104.3 x10_2/uL
- KIDNEY_L (72 h, time 3 day): 0.9 g
- KIDNEY_R (72 h, time 3 day): 1 g
- KIDNEY_TOTAL (72 h, time 3 day): 1.9 g
- LIVER (72 h, time 3 day): 10.3 g
- A/G (72 h, time 3 day): 2.2
- ALP (72 h, time 3 day): 1003.6 IU/L
- ALT (72 h, time 3 day): 37 IU/L
- AST (72 h, time 3 day): 63.8 IU/L
- BUN (72 h, time 3 day): 19.4 mg/dL
- CRE (72 h, time 3 day): 0.5 mg/dL
- Ca (72 h, time 3 day): 11.1 mg/dL
- Cl (72 h, time 3 day): 102.8 meq/L
- DBIL (72 h, time 3 day): 0.008 mg/dL
- GLC (72 h, time 3 day): 199.8 mg/dL
- IP (72 h, time 3 day): 7.4 mg/dL
- K (72 h, time 3 day): 4.5 meq/L
- LDH (72 h, time 3 day): 87.6 IU/L
- Na (72 h, time 3 day): 140 meq/L
- PL (72 h, time 3 day): 152.6 mg/dL
- RALB (72 h, time 3 day): 3.9 g/dL
- TBIL (72 h, time 3 day): 0.3 mg/dL
- TC (72 h, time 3 day): 79.4 mg/dL
- TG (72 h, time 3 day): 101.4 mg/dL
- TP (72 h, time 3 day): 5.8 g/dL
- gamma-GTP (72 h, time 3 day): 1.8 IU/L
- TERMINAL_BW ([…], time 7 day): 249.2 g
- TERMINAL_BW ([…], time 14 day): 302.2 g
- TERMINAL_BW ([…], time 28 day): 382 g
- APTT ([…], time 7 day): 16.1 s
- Bas ([…], time 7 day): 0%
- Eos ([…], time 7 day): 1%
- Fbg ([…], time 7 day): 220.4 mg/dL
- Hb ([…], time 7 day): 13 g/dL
- Ht ([…], time 7 day): 39.8%
- Lym ([…], time 7 day): 82.2%
- MCH ([…], time 7 day): 20.6 pg
- MCHC ([…], time 7 day): 32.6%
- MCV ([…], time 7 day): 63.3 fL
- Mono ([…], time 7 day): 5%
- Neu ([…], time 7 day): 12.2%
- PT ([…], time 7 day): 11.2 s
- Plat ([…], time 7 day): 125.7 x10_4/uL
- RBC ([…], time 7 day): 629.6 x10_4/ul
- Ret ([…], time 7 day): 7%
- WBC ([…], time 7 day): 107.8 x10_2/uL
- APTT ([…], time 14 day): 17.8 s
- Bas ([…], time 14 day): 0%
- Eos ([…], time 14 day): 0.8%
- Fbg ([…], time 14 day): 211.6 mg/dL
- Hb ([…], time 14 day): 13.6 g/dL
- Ht ([…], time 14 day): 41.6%
- Lym ([…], time 14 day): 84.6%
- MCH ([…], time 14 day): 20.6 pg
- MCHC ([…], time 14 day): 32.9%
- MCV ([…], time 14 day): 62.5 fL
- Mono ([…], time 14 day): 4%
- Neu ([…], time 14 day): 11%
- PT ([…], time 14 day): 11.4 s
- Plat ([…], time 14 day): 121.9 x10_4/uL
- RBC ([…], time 14 day): 664.2 x10_4/ul
- Ret ([…], time 14 day): 3.8%
- WBC ([…], time 14 day): 121.7 x10_2/uL
- APTT ([…], time 28 day): 17.6 s
- Bas ([…], time 28 day): 0%
- Eos ([…], time 28 day): 1.2%
- Fbg ([…], time 28 day): 226.2 mg/dL
- Hb ([…], time 28 day): 15.2 g/dL
- Ht ([…], time 28 day): 45.3%
- Lym ([…], time 28 day): 83.8%
- MCH ([…], time 28 day): 19.1 pg
- MCHC ([…], time 28 day): 33.5%
- MCV ([…], time 28 day): 57 fL
- Mono ([…], time 28 day): 5.6%
- Neu ([…], time 28 day): 9.6%
- PT ([…], time 28 day): 11.4 s
- Plat ([…], time 28 day): 125.9 x10_4/uL
- RBC ([…], time 28 day): 794.6 x10_4/ul
- Ret ([…], time 28 day): 2%
- WBC ([…], time 28 day): 105.2 x10_2/uL
- KIDNEY_L ([…], time 7 day): 1 g
- KIDNEY_R ([…], time 7 day): 1.1 g
- KIDNEY_TOTAL ([…], time 7 day): 2.1 g
- KIDNEY_L ([…], time 14 day): 1.2 g
- KIDNEY_R ([…], time 14 day): 1.3 g
- KIDNEY_TOTAL ([…], time 14 day): 2.5 g
- KIDNEY_L ([…], time 28 day): 1.4 g
- KIDNEY_R ([…], time 28 day): 1.4 g
- KIDNEY_TOTAL ([…], time 28 day): 2.9 g
- LIVER ([…], time 7 day): 12.3 g
- LIVER ([…], time 14 day): 13.9 g
- LIVER ([…], time 28 day): 16.5 g
- A/G ([…], time 7 day): 1.9
- ALP ([…], time 7 day): 1031.8 IU/L
- ALT ([…], time 7 day): 37.4 IU/L
- AST ([…], time 7 day): 67 IU/L
- BUN ([…], time 7 day): 18.4 mg/dL
- CRE ([…], time 7 day): 0.5 mg/dL
- Ca ([…], time 7 day): 11.1 mg/dL
- Cl ([…], time 7 day): 104.2 meq/L
- DBIL ([…], time 7 day): 0.004 mg/dL
- GLC ([…], time 7 day): 206.8 mg/dL
- IP ([…], time 7 day): 7.9 mg/dL
- K ([…], time 7 day): 4.4 meq/L
- LDH ([…], time 7 day): 80.4 IU/L
- Na ([…], time 7 day): 142.4 meq/L
- PL ([…], time 7 day): 154 mg/dL
- RALB ([…], time 7 day): 3.7 g/dL
- TBIL ([…], time 7 day): 0.3 mg/dL
- TC ([…], time 7 day): 79.8 mg/dL
- TG ([…], time 7 day): 126.4 mg/dL
- TP ([…], time 7 day): 5.7 g/dL
- gamma-GTP ([…], time 7 day): 1.2 IU/L
- A/G ([…], time 14 day): 1.9
- ALP ([…], time 14 day): 756.6 IU/L
- ALT ([…], time 14 day): 31 IU/L
- AST ([…], time 14 day): 61.4 IU/L
- BUN ([…], time 14 day): 20.6 mg/dL
- CRE ([…], time 14 day): 0.5 mg/dL
- Ca ([…], time 14 day): 10.9 mg/dL
- Cl ([…], time 14 day): 104.2 meq/L
- DBIL ([…], time 14 day): 0.008 mg/dL
- GLC ([…], time 14 day): 206 mg/dL
- IP ([…], time 14 day): 7.2 mg/dL
- K ([…], time 14 day): 4.9 meq/L
- LDH ([…], time 14 day): 90.6 IU/L
- Na ([…], time 14 day): 141.6 meq/L
- PL ([…], time 14 day): 148.4 mg/dL
- RALB ([…], time 14 day): 3.8 g/dL
- TBIL ([…], time 14 day): 0.3 mg/dL
- TC ([…], time 14 day): 69.4 mg/dL
- TG ([…], time 14 day): 126 mg/dL
- TP ([…], time 14 day): 5.8 g/dL
- gamma-GTP ([…], time 14 day): 1.4 IU/L
- A/G ([…], time 28 day): 1.9
- ALP ([…], time 28 day): 557 IU/L
- ALT ([…], time 28 day): 29.8 IU/L
- AST ([…], time 28 day): 57.6 IU/L
- BUN ([…], time 28 day): 19.4 mg/dL
- CRE ([…], time 28 day): 0.6 mg/dL
- Ca ([…], time 28 day): 10.3 mg/dL
- Cl ([…], time 28 day): 105.2 meq/L
- DBIL ([…], time 28 day): 0.016 mg/dL
- GLC ([…], time 28 day): 195 mg/dL
- IP ([…], time 28 day): 6.3 mg/dL
- K ([…], time 28 day): 4.7 meq/L
- LDH ([…], time 28 day): 78.2 IU/L
- Na ([…], time 28 day): 142.6 meq/L
- PL ([…], time 28 day): 139 mg/dL
- RALB ([…], time 28 day): 4 g/dL
- TBIL ([…], time 28 day): 0.3 mg/dL
- TC ([…], time 28 day): 62.6 mg/dL
- TG ([…], time 28 day): 136.4 mg/dL
- TP ([…], time 28 day): 6.2 g/dL
- gamma-GTP ([…], time 28 day): 1.6 IU/L

— ChEMBL document CHEMBL3885861, “Open TG-GATES”
